Values of other authors as cited in paper PMC6044621 (ACS Omega, 2016).

System: Cbx7
Conditions: ref 13c

UNC3866
potency as Cbx7 inhibitor: 97 nM
